Laboratory results taken from US20260232662A1, “MIR-124 INDUCER, AND PREPARATION METHOD THEREFOR AND USE THEREOF” (NANJING SYNNOCARE PHARMACEUTICAL TECHNOLOGY CO., LTD., priority 2023, published 2026).

Columns and labels:
DSS-induced IBD in mice = test: Preventive and therapeutic effects on DSS-induced inflammatory bowel disease (IBD) in mice; assay type: in vivo; conditions: for colon length as % of normal control values: model group 77.32%; for Total Disease Activity Index (DAI) Scores / total DAI scores: final day; for Total Disease Activity Index (DAI) Scores / Colon length: mean ± S.E.M.; for Total Disease Activity Index (DAI) Scores: model group 14.50; for total DAI scores: model group 14.5 points; for Colon length: last experimental day, normal control 6.44, model group 4.98
Text: This study evaluated the preventive and therapeutic effects of the compounds of the present invention on dextran sulfate sodium (DSS)-induced IBD in mice. The experiment utilized female C57BL/6 mice (purchased from Beijing Vital River Laboratory Animal Technology Co., Ltd.) to establish the DSS-induced IBD model.
Female C57BL/6 mice (6-8 weeks old) were purchased from Beijing Vital River Laboratory Animal Technology Co., Ltd. Upon arrival, the mice were housed in individually ventilated cages (IVC) under specific pathogen-free (SPF) conditions, with 2-6 mice per cage. They were provided with ad libitum access to food and water and maintained at a temperature of 20-26° C. (68-79° F.), relative humidity of 40-70%, and a 12-hour light/dark cycle (lights on from 08:00 to 20:00). After a 7-day acclimatization period, experiments were initiated.
Test compounds and ABX464 vehicle: 5% DMSO+10% Solutol HS-15+85% saline, stored at 4° C.
DSS solution: 2% (w/v) DSS in autoclaved drinking water, prepared fresh before use.
The mice were randomly allocated into eight groups according to body weight: normal control group (negative control), model group (DSS group), ABX464 treatment group, test compound groups (administered with Compounds 19, 43, 59, 84, and 89 of the present invention at 40 mg/kg, p.o., q.d.)
Following a 7-day acclimation period, the model group and compound treatment groups were administered 2% DSS aqueous solution ad libitum for 7 days starting from Day 0, followed by 3 days of normal water consumption. All groups received daily oral gavage of their respective vehicles or test compounds for 10 consecutive days beginning on the trial commencement date. During the experimental period, body weight changes in mice were monitored and recorded daily, the Disease Activity Index (DAI) was scored each day with the total score calculated on the final day, and on the last experimental day all animals were humanely euthanized followed by colon collection and length measurement.
The experimental data were expressed as mean±standard error of the mean (mean±S.E.M.). Statistical analysis was performed using GraphPad Prism or SPSS software with appropriate statistical methods. A value of P<0.05 was considered statistically significant.

[1] = In vivo pharmacokinetic evaluation in mice; conditions: mouse; male ICR mice, po, 10 mg/kg, plasma
Description: The compound was administered orally (p.o.) at a dose of 10 mg/kg. The test formulation was prepared at a final concentration of 0.4 mg/mL in 5% DMSO+45% PEG400+50% aqueous solution or suspension. Male ICR mice (9 per group) were sampled at three discontinuous time points (n=3 mice/time point). Approximately 80 μL of blood was collected via orbital or cardiac puncture at 5 min, 15 min, 30 min, 1 h, 2 h, 4 h, 8 h, and 24 h post-dose. All whole blood samples were collected in EDTA K2-containing tubes. After centrifugation at 4° C. (4000 rpm, 10 min), plasma was collected and stored below −40° C. for subsequent analysis. Compound concentrations in plasma were determined by liquid chromatography-tandem mass spectrometry (LC-MS/MS), and pharmacokinetic parameters were derived from the plasma concentration-time curves.

miR-124 = test: Induction of miR-124 expression in PBMC cells (qPCR); assay type: cell-based; conditions: Homo sapiens, 72 h, 0.1 μM compound, human PBMCs stimulated with PMA/ionomycin, miR-191 reference gene, read-out: miR-124 expression, Fold change vs DMSO
Procedure, shortened: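 Human PBMCs (3.0*10^6 cells/well) were stimulated with PMA 10 ng/mL plus ionomycin 200 ng/mL for 48 h, then given compound at 0.1 μM final for 72 h. miR-124 was measured by RT-qPCR against miR-191 as reference gene. Expression is relative to DMSO control.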

[2] = day 10, 40 mg/kg p.o. q.d., female C57BL/6 mice, 2% DSS

| AUC(0-t) [1] [ng·h/mL] | Cmax [1] [ng/mL] | Tmax [1] [h] | half-life [1] [h] | SMILES | reduction in total DAI scores compared to the model group (DSS-induced IBD in mice; 40 mg/kg p.o. q.d.) [%] | colon length as % of normal control values (DSS-induced IBD in mice; 40 mg/kg p.o. q.d.) [%] | body weight gain percentage (DSS-induced IBD in mice; [2]) [%] | Total Disease Activity Index (DAI) Scores (DSS-induced IBD in mice; 40 mg/kg p.o. q.d.) | total DAI scores (DSS-induced IBD in mice; 40 mg/kg p.o. q.d.) [points] | Colon length (DSS-induced IBD in mice; 40 mg/kg p.o. q.d.) [cm] | fold induction at 0.1 µM (miR-124) | body weight loss percentage (DSS-induced IBD in mice; [2]) [%] | preventive and therapeutic effects on DSS-induced IBD (body weight, DAI, colon length) relative to ABX464 (DSS-induced IBD in mice; further experiments, figures not given) |
| --- | --- | --- | --- | --- | --- | --- | --- | --- | --- | --- | --- | --- | --- |
| 1640 | 358 | 4 | 3.36 | FC(F)(F)Oc1ccc(Nc2nc3c(Cl)cccc3n3ccnc23)cc1Cl [Compound 19] | 42.55 | 96.27 | 0.16 | 8.33 | 8.33 | 6.20 | 21.2 | – | – |
| 1680 | 348 | 2 | 3.87 | Fc1cc(Nc2nc3c(F)cccc3n3ccnc23)ccc1OC(F)(F)F [Compound 43] | – | 99.69 | – | 10.03 | 10.03 | 6.42 | 18.9 | 2.22 | – |
| 1860 | 454 | 2 | 3.46 | FC(F)(F)c1ccc(NC2=Nc3c(Cl)cc(Cl)cc3N3CCN=C23)cc1 [Compound 89] | – | 99.07 | – | 10.33 | 10.33 | 6.38 | 24.3 | 1.85 | – |
| 3240 | 378 | 2 | 3.05 | FC(F)(F)Oc1ccc(Nc2nc3cc(Cl)ccc3n3ccnc23)cc1 [Compound B7, 7-chloro-N-(4-(trifluoromethoxy)phenyl)imidazolo [1,2-a]quinoxalin-4-amine] | – | – | – | – | – | – | 32 | – | outperformed the reference drug ABX464 |
